The values below are quoted from earlier work in patent US9625464B2, “Fluorescent probe for plasma cell identification and isolation, and plasma cell identification or isolation method using the probe” (NATIONAL UNIVERSITY CORPORATION UNIVERSITY OF TOYAMA, priority 2010, dated 2017).

In this series the target is ATP-sensitive K+ channel. The settings on record: read-out: dissociation constant to ATP-sensitive K+ channel.

For `COc1ccc(Cl)cc1C(=O)NCCc1ccc(S(=O)(=O)NC(=O)NC2CCCCC2)cc1` [glibenclamide], the Kd is 0.1 to 3.6 nM.
